The source of these data is US6100239A, “13-membered ring macrolide compound, medicine containing the same, and process for producing the same” (Chugai Seiyaku Kabushiki Kaisha, priority 1996, dated 2000).

The assay has as its target T1, Motilin receptor (Oryctolagus cuniculus, UniProt G1T803).
T1 construct: homogenized in a 50 mM Tris solution (pH 7.4) to prepare a protein solution; from tissue; host or cells: rabbit duodenum (mucous membrane detached from the tunica muscularis, then homogenized)
Nature of the assay: Motilin receptor binding test (125I-labeled motilin). Particulars: rabbit duodenum tunica muscularis homogenate; 25 pM 125I-labeled motilin; 25° C., 120 minutes; test drug in DMSO (final 1%); read-out: IC50, the concentration of the test drug which reduces the specific binding capacity to 50%. As for the experimental part:
Motilin receptor binding test was carried out by the method shown below (see V. Bormans, et al., Regul, Peptides, 15, 143 (1986)). From a slaughtered rabbit was removed the duodenum, of which the mucous membrane was detached from the tunica muscularis and then homogenized in a 50 mM Tris solution (pH 7.4) to prepare a protein solution. After incubating 25 pM ^125 I-labeled motilin (available from Otsuka Assay Laboratory) and the protein solution at 25° C. for 120 minutes, radioactivity in the protein solution was measured with a γ-ray counter. The difference between the radioactivity observed in the case of non-addition of motilin and that observed in the case of addition of an excess (1×10^-7 M) of motilin was defined as the specific binding capacity. The efficacy of the sample was expressed as IC50, the concentration of the test drug which reduces the specific binding capacity to 50%. The test drug was dissolved in a DMSO solution and added to the protein solution (the final DMSO concentration: 1%).

T1 sequence (G1T803 1-400): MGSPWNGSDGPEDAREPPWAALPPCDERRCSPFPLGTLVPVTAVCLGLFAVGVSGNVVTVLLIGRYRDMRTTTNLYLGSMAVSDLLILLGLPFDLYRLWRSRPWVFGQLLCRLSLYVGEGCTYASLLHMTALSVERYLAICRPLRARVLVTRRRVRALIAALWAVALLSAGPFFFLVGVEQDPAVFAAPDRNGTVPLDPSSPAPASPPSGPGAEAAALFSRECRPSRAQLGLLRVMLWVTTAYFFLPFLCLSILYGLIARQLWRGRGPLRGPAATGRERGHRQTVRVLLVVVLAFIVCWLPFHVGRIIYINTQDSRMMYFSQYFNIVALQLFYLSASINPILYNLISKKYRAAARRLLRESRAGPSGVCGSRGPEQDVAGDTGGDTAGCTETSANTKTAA

Turning to `COC1(C)CC(OC2C(C)C(=O)OC(C)C(=O)C(C)C3=C(C)CC(C)(O3)C(OC3OC(C)CC(N(C)C)C3O)C2C)OC(C)C1O` (stereo not shown) [Compound 4], the IC50 was 5.7 nM.
